The text below walks through data of patent US7306804B2 (priority 1998, dated 2007).

Assay [1] has as its system HIV envelope protein gp160. The note with it: cited from earlier work; for T-cell proliferative response to immunizing peptide and HIV Env protein gp160 / antibodies recognizing recombinant gp160: immunized mice; for T-cell proliferation responses: two F1 hybrid mouse strains (B6C3 F1 and A.SW×Balb/c F1).
For assay [2], the system named is PBMCs. The note with it: cited from earlier work.
In assay [3] the test system is peptide-pulsed autologous EBV-transformed B cells (B-LCL). The format is cell-based, human.
The test system of assay [4] is PBMCs from normal and HIV-positive individuals. It is filed as cell-based, human. Particulars: for number of HIV+ individuals with positive proliferative responses: 17 HIV+ individuals tested.
In assay [5] the test system is PBMCs from control and HIV-1 infected chimpanzees. The format is cell-based, chimpanzee.
Assay [6] relates to anti-peptide antibodies in serum. The format is binding, human. Also on record: key to Anti-peptide antibody response: +, Positive (titer above control); −, Negative (titer below control).
For assay [7] the test system is unchanged. The format is binding, chimpanzee. Also on record: key: +, Positive (Titer > 1:100); −, Negative (Titer < 1:100).

“Also recorded” adds a separate entry of the source. Where two headings read alike, the source gives them in different places.

For the sequence FLGFLGAAGSTMGAASLTLTVQARQ [Peptide 63], in assay [1], the “T-cell proliferative response to immunizing peptide and HIV Env protein gp160” value was “induced a T-cell response against both the immunizing peptide and the HIV Env protein; also recorded: induced proliferative responses to both the immunizing peptide”; the “antibodies recognizing recombinant gp160” value is reported as “did not produce antibodies that could recognize recombinant gp160”; the T-cell proliferation responses result was “relatively good T-cell proliferation responses”. Moreover, in assay [2] (monkey, in vivo), the “proliferative response of PBMCs” value is “good response”. Moreover, in assay [3], the “% Specific lysis at various E:T ratios 12.5:1” value is 0%, the “% Specific lysis at various E:T ratios 25:1” value is on record as 7.9%, the “% Specific lysis at various E:T ratios 50:1” value was found to be 8.8% and the “% Specific lysis at various E:T ratios 100:1” value amounted to 17.6%. Also, in assay [3], the “CTL activity against peptide-pulsed autologous B-LCLs” value is reported as “significant CTL activity” and the “specific lysis of peptide-pulsed target cells” value was “also observed”.
As for GTGPCTNVSTVQC [Peptide 116], the T-cell proliferation responses entry in assay [1] is recorded as “relatively good T-cell proliferation responses”. In addition, the “proliferative response of PBMCs” value in assay [2] (monkey, in vivo) is on record as “weak responses”.
Consider LWDQSLKPCVKLT [Peptide 111], for which the T-cell proliferation responses entry in assay [1] is “relatively good T-cell proliferation responses”. Moreover, the “proliferative response of PBMCs” value in assay [2] (three monkeys immunized with peptide cocktail) is recorded as “good response”.
Consider SVITQACSKVSFE [Peptide 113], for which the “number of HIV+ individuals with positive proliferative responses” value in assay [4] is “five”. In addition, the T-cell proliferative response entry in assay [4] (HIV-positive patient MSf) is “− (−, Negative (SI < 2.0))”; in assay [4] (HIV-positive patient MSm), “− (−, Negative (SI < 2.0))”; in assay [4] (HIV-positive patient eight), “− (−, Negative (SI < 2.0))”; in assay [4] (HIV-positive patient eleven) it was “− (−, Negative (SI < 2.0))”; in assay [4] (HIV-positive patient fifteen), “+ (+, Positive (Stimulation Index [SI] > 2.0))”; in assay [4] (HIV-positive patient five), “− (−, Negative (SI < 2.0))”. The T-cell proliferative response entry in assay [4] (HIV-positive patient four) is “− (−, Negative (SI < 2.0))”; in assay [4] (HIV-positive patient fourteen), “+ (+, Positive (Stimulation Index [SI] > 2.0))”; in assay [4] (HIV-positive patient nine) it was “− (−, Negative (SI < 2.0))”; in assay [4] (HIV-positive patient one) it was “− (−, Negative (SI < 2.0))”; in assay [4] (HIV-positive patient seven), “+ (+, Positive (Stimulation Index [SI] > 2.0))”; in assay [4] (HIV-positive patient six), “+ (+, Positive (Stimulation Index [SI] > 2.0))”. Moreover, the T-cell proliferative response result was “− (−, Negative (SI < 2.0))” in assay [4] (HIV-positive patient ten); “+ (+, Positive (Stimulation Index [SI] > 2.0))” in assay [4] (HIV-positive patient thirteen); “− (−, Negative (SI < 2.0))” in assay [4] (HIV-positive patient three); “− (−, Negative (SI < 2.0))” in assay [4] (HIV-positive patient twelve); “− (−, Negative (SI < 2.0))” in assay [4] (HIV-positive patient two); “− (−, Negative (SI < 2.0))” in assay [4] (Normal-1 (HIV-seronegative)). The T-cell proliferative response result in assay [4] (Normal-2 (HIV-seronegative)) was “− (−, Negative (SI < 2.0))”; in assay [5] (chimpanzee 40, control normal) it was “− (−, Negative (SI < 2.0))”; in assay [5] (chimpanzee 62, HIV-infected), “+ (+, Positive (Stimulation Index [SI] > 2.0))”; in assay [5] (chimpanzee 69, HIV-infected) it was “+ (+, Positive (Stimulation Index [SI] > 2.0))”; in assay [5] (chimpanzee 73, control normal) it was “− (−, Negative (SI < 2.0))”; in assay [5] (chimpanzee 80, HIV-infected) it was “+ (+, Positive (Stimulation Index [SI] > 2.0))”. In addition, the T-cell proliferative response entry in assay [5] (chimpanzee 99, HIV-infected) was “− (−, Negative (SI < 2.0))”; in assay [5] (chimpanzee 100, HIV-infected), “+ (+, Positive (Stimulation Index [SI] > 2.0))”; in assay [5] (chimpanzee 139, HIV-infected), “− (−, Negative (SI < 2.0))”; in assay [5] (chimpanzee 175, HIV-infected), “+ (+, Positive (Stimulation Index [SI] > 2.0))”; in assay [5] (chimpanzee 247, HIV-infected) it was “− (−, Negative (SI < 2.0))”; in assay [5] (chimpanzee 310, HIV-infected), “− (−, Negative (SI < 2.0))”. Moreover, the “T-cell proliferative response to immunizing peptide and HIV Env protein gp160” value in assay [1] is “induced a T-cell response against both the immunizing peptide and the HIV Env protein; also recorded: induced proliferative responses to both the immunizing peptide”. Besides, the “antibodies recognizing recombinant gp160” value in assay [1] is recorded as “did not produce antibodies that could recognize recombinant gp160”. Further, the T-cell proliferation responses entry in assay [1] is on record as “relatively good T-cell proliferation responses”. Also, in assay [2] (monkey, in vivo), the “proliferative response of PBMCs” value was “weak responses”. Also, the “number of HIV-infected chimpanzees with positive proliferative responses (SI>2.0)” value in assay [5] (nine HIV-infected chimpanzees tested) is “five”. In addition, the “% Specific lysis at various E:T ratios 12.5:1” value in assay [3] is 0%. In addition, the “% Specific lysis at various E:T ratios 25:1” value in assay [3] was 0%. Further, in assay [3], the “% Specific lysis at various E:T ratios 50:1” value stood at 0%. Further, in assay [3], the “% Specific lysis at various E:T ratios 100:1” value is recorded as 0%. Moreover, the “CTL activity against peptide-pulsed autologous B-LCLs” value in assay [3] is given as “did not serve as a CTL epitope”. Further, the Anti-peptide antibody response result is “+ and −” in assay [6]; “−” in assay [7]. In assay [6], the “number of HIV+ individuals with positive antibody titers (<1:1280)” value was “one”.
For the sequence YLRDQQLLGIWG [Peptide 120], the “number of HIV+ individuals with positive proliferative responses” value in assay [4] is “five”. The T-cell proliferative response entry in assay [4] (HIV-positive patient MSf) was “− (−, Negative (SI < 2.0))”; in assay [4] (HIV-positive patient MSm), “− (−, Negative (SI < 2.0))”; in assay [4] (HIV-positive patient eight) it was “− (−, Negative (SI < 2.0))”; in assay [4] (HIV-positive patient eleven) it was “+ (+, Positive (Stimulation Index [SI] > 2.0))”; in assay [4] (HIV-positive patient fifteen), “+ (+, Positive (Stimulation Index [SI] > 2.0))”; in assay [4] (HIV-positive patient five), “− (−, Negative (SI < 2.0))”. The T-cell proliferative response entry in assay [4] (HIV-positive patient four) was “− (−, Negative (SI < 2.0))”; in assay [4] (HIV-positive patient fourteen) it was “− (−, Negative (SI < 2.0))”; in assay [4] (HIV-positive patient nine), “+ (+, Positive (Stimulation Index [SI] > 2.0))”; in assay [4] (HIV-positive patient one), “− (−, Negative (SI < 2.0))”; in assay [4] (HIV-positive patient seven), “+ (+, Positive (Stimulation Index [SI] > 2.0))”; in assay [4] (HIV-positive patient six) it was “+ (+, Positive (Stimulation Index [SI] > 2.0))”. Moreover, the T-cell proliferative response entry in assay [4] (HIV-positive patient ten) is given as “− (−, Negative (SI < 2.0))”; in assay [4] (HIV-positive patient thirteen) it was “− (−, Negative (SI < 2.0))”; in assay [4] (HIV-positive patient three) it was “− (−, Negative (SI < 2.0))”; in assay [4] (HIV-positive patient twelve) it was “− (−, Negative (SI < 2.0))”; in assay [4] (HIV-positive patient two), “− (−, Negative (SI < 2.0))”; in assay [4] (Normal-1 (HIV-seronegative)) it was “− (−, Negative (SI < 2.0))”. Moreover, the T-cell proliferative response entry in assay [4] (Normal-2 (HIV-seronegative)) was “− (−, Negative (SI < 2.0))”; in assay [5] (chimpanzee 40, control normal), “− (−, Negative (SI < 2.0))”; in assay [5] (chimpanzee 62, HIV-infected), “+ (+, Positive (Stimulation Index [SI] > 2.0))”; in assay [5] (chimpanzee 69, HIV-infected), “+ (+, Positive (Stimulation Index [SI] > 2.0))”; in assay [5] (chimpanzee 73, control normal) it was “− (−, Negative (SI < 2.0))”; in assay [5] (chimpanzee 80, HIV-infected), “+ (+, Positive (Stimulation Index [SI] > 2.0))”. The T-cell proliferative response result in assay [5] (chimpanzee 99, HIV-infected) is “− (−, Negative (SI < 2.0))”; in assay [5] (chimpanzee 100, HIV-infected), “+ (+, Positive (Stimulation Index [SI] > 2.0))”; in assay [5] (chimpanzee 139, HIV-infected), “− (−, Negative (SI < 2.0))”; in assay [5] (chimpanzee 175, HIV-infected) it was “− (−, Negative (SI < 2.0))”; in assay [5] (chimpanzee 247, HIV-infected), “− (−, Negative (SI < 2.0))”; in assay [5] (chimpanzee 310, HIV-infected) it was “− (−, Negative (SI < 2.0))”. Also, the Anti-peptide antibody response entry in assay [6] was “− and +”; in assay [7] it was “−”. Also, in assay [6], the “number of HIV+ individuals with positive antibody titers (<1:1280)” value is on record as “two”.
As for YLRDQQLLGIWGC [Peptide 61], in assay [1], the “T-cell proliferative response to immunizing peptide and HIV Env protein gp160” value was “induced a T-cell response against both the immunizing peptide and the HIV Env protein”; the “antibodies recognizing recombinant gp160” value is given as “did not produce antibodies that could recognize recombinant gp160”; the T-cell proliferation responses entry is on record as “relatively good T-cell proliferation responses”. The “proliferative response of PBMCs” value in assay [2] (monkey, in vivo) is listed as “PMBCs from two of the monkeys showed good proliferative responses”. Further, in assay [3], the “% Specific lysis at various E:T ratios 12.5:1” value stood at 4.0%, the “% Specific lysis at various E:T ratios 25:1” value worked out at 4.0%, the “% Specific lysis at various E:T ratios 50:1” value was found to be 14.5% and the “% Specific lysis at various E:T ratios 100:1” value came out at 15.0%. Further, in assay [3], the “CTL activity against peptide-pulsed autologous B-LCLs” value is given as “significant CTL activity” and the “specific lysis of peptide-pulsed target cells” value is “also observed”.
